The text below walks through data of article PMC11279807, “Modulation of the Antimelanoma Activity Imparted to Artemisinin Hybrids by the Monoterpene Counterpart” (Molecules, 2024).

The IC50 is the concentration that gives 50% inhibition.

Like-named read-outs stand apart in the source and are kept apart here.

Assay type in all cases: cell-based, human
One test concerns WM115. Briefly: MTT cell viability assay on primary melanoma cell line WM115. The note with it: for IC50: primary melanoma WM115, MTT, 24 h treatment, triplicates, read-out: IC50 (µM ± SD) WM115; for TSI WM115: tumor selectivity index = IC50 on C3PV / IC50 on WM115. On the procedure:
(§1) The primary human healthy fibroblast C3PV cell line was grown in a culture medium containing 50% Dulbecco Modified Medium (DMEM) and 50% Ham’s F10 supplemented with 10% Fetal Bovine Serum (FBS). […] To all growing media were added 1% Pen/Strep and 1% Glutamine.
(§2) To study the effect of artemisinin derivatives on cell viability, MTT assay was performed. Briefly, C3PV, WM115, and WM266 cell lines were seeded in 96-well plates (3000 cells/well in 100 μL of medium) 24 h before treatment and incubated overnight to allow for cell adherence. Afterward, the medium was replaced with a fresh one containing the appropriate dose of newly synthesized compounds (doses ranging from 0.01 to 1 μM were used for 24 h). The analyses of cell viability were performed at the end of the treatment. Triplicates were made in all experiments. After 24 h of treatment with newly synthesized compounds, the culture medium was replaced with a solution containing 0.5 mg/mL of MTT. After 3 h of incubation in an incubator, the medium was removed, and a lysis solution (10% SDS, 0.6% acetic acid in DMSO) was added to dissolve the formazan crystals. Optical density measurements were performed with a microplate reader EPOCH/2 (Biotek) with 630 nm (background) and a 570 nm filters.
(§3) The IC50 values were determined via non-linear regression, using the GraphPad Prism software package version 8 (GraphPad Software, San Diego, CA, USA). Results were expressed as means of IC50 values ± SD. The TSI values were calculated using the following formula: […]
(In general: Formazan colour is commonly taken as a measure of viable cells.)

In another test the test system is WM266. As to the kind of experiment: MTT cell viability assay on metastatic melanoma cell line WM266. The conditions noted are these: for IC50: metastatic melanoma WM266, MTT, 24 h treatment, triplicates, read-out: IC50 (µM ± SD) WM266; for TSI WM266: tumor selectivity index = IC50 on C3PV / IC50 on WM266. On the procedure:
as §1, §2, §3

In the next test the test system is C3PV. As to the kind of experiment: MTT cell viability assay on normal fibroblasts C3PV. The note with it: 24 h treatment, triplicates, read-out: IC50 (µM ± SD) C3PV. The procedure:
as §1
as §2, with “Afterward, the medium was replaced with a fresh one containing the appropriate dose of newly synthesized compounds (doses ranging from 0.01 to 1 μM were used for 24 h).” left out
as §3

As for `CC(C)=CCCC(C)CCOC(=O)CCC(=O)OC1OC2OC3(C)CCC4C(C)CCC(C1C)C24OO3` (mixture of isomers) [Hybrid 10c], the IC50 turned out to be 1.3 ± 0.9 µM in the test on WM115 (Homo sapiens, WM-115, 24 h); 0.6 ± 0.02 µM in the test on WM266 (Homo sapiens, WM266, 24 h); 4.4 ± 2.9 µM in the test on C3PV (Homo sapiens, C3PV, 24 h). The “TSI WM115” value in the test with WM115 was determined as 3.4. Also, the “TSI WM266” value in the test on WM266 came to 7.3.
With `CC(C)=CCCC(C)CCO` (racemic) [(±)-citronellol (±)-6, (±)-citronellol, reference compound], the IC50 with WM115 (Homo sapiens, WM-115, 24 h) is 2.6 ± 0.05 µM; in the test with WM266 (Homo sapiens, WM266, 24 h) it was 0.3 ± 0.23 µM; in the test with C3PV (Homo sapiens, C3PV, 24 h) it was 3 ± 1.2 µM. Moreover, the “TSI WM115” value in the test with WM115 is 1.2. In addition, the “TSI WM266” value was determined as 10.0 in the test on WM266 and 10 with WM266 (listed as citronellol (±)-6).
As for `CC(C)=CCC[C@@H](C)CCO` [(+)-citronellol (+)-6, (+)-citronellol, reference compound], the IC50 with WM115 (Homo sapiens, WM-115, 24 h) stood at 1.5 ± 0.07 µM; in the test with WM266 (Homo sapiens, WM266, 24 h), 0.6 ± 0.02 µM; in the test on C3PV (Homo sapiens, C3PV, 24 h), 1.9 ± 0.8 µM. Besides, the “TSI WM115” value in the test with WM115 came to 1.3. In addition, the “TSI WM266” value with WM266 is listed as 3.2.
The corresponding values for `CC(C)=CCC[C@H](C)CCO` [(-)-citronellol (-)-6, (-)-citronellol, reference compound] are 0.9 ± 0.03 µM, 0.5 ± 0.3 µM, 1 ± 0.9 µM, 1.1 and 2.0.
In the case of `C[C@H]1[C@H](OC(=O)CCC(=O)O)O[C@@H]2O[C@@]3(C)CC[C@H]4[C@H](C)CC[C@@H]1[C@@]24OO3` [ARTA 3, artesunic acid, reference compound], the IC50 in the test on WM115 (Homo sapiens, WM-115, 24 h) is 1.5 ± 0.01 µM; with WM266 (Homo sapiens, WM266, 24 h), 1.3 ± 0.2 µM; in the test with C3PV (Homo sapiens, C3PV, 24 h) it was 1.7 ± 0.44 µM. The “TSI WM115” value in the test on WM115 was 1.1. The “TSI WM266” value in the test with WM266 came out at 1.3.
The corresponding values for `C[C@H]1[C@@H](O)O[C@@H]2O[C@@]3(C)CC[C@H]4[C@H](C)CC[C@@H]1[C@@]24OO3` [DHA 2, dihydroartemisinin, reference compound] are 1.6 ± 0.4 µM, 1.6 ± 0.03 µM, 0.7 ± 0.19 µM, 0.4 and 0.4.
For the molecule `C=CCc1ccc(O)c(OC)c1` [Eugenol 4, eugenol, reference compound], the half-maximal inhibitory concentration (IC50) in the test with WM115 (Homo sapiens, WM-115) was determined as 3 ± 0.02 µM; in the test on WM266 (Homo sapiens), 0.9 ± 0.05 µM; in the test with C3PV (Homo sapiens) it was 1 ± 0.1 µM. Moreover, the “TSI WM115” value in the test with WM115 was 0.3. In the test on WM266, the “TSI WM266” value amounted to 1.1.
Take `CC(C)=CCC/C(C)=C/CO` [Geraniol 8, geraniol, reference compound]: the half-maximal inhibitory concentration (IC50) in the test on WM115 (Homo sapiens, WM-115, 24 h) was determined as 0.5 ± 0.01 µM; with WM266 (Homo sapiens, WM266, 24 h), 0.5 ± 0.09 µM; in the test on C3PV (Homo sapiens, C3PV, 24 h) it was 0.5 ± 0.02 µM. In the test on WM115, the “TSI WM115” value worked out at 1.0. Further, the “TSI WM266” value in the test on WM266 is listed as 1.0.
In the case of `C=CCc1ccc(O[C@H]2O[C@@H]3O[C@@]4(C)CC[C@H]5[C@H](C)CC[C@@H]([C@H]2C)[C@@]35OO4)c(OC)c1` [Hybrid 9a], the IC50 in the test with WM115 (Homo sapiens, WM-115, 24 h) was 0.1 ± 0.01 µM; in the test on WM266 (Homo sapiens, WM266, 24 h) it was 1 ± 0.09 µM; in the test on C3PV (Homo sapiens, C3PV, 24 h), 0.7 ± 0.04 µM. The “TSI WM115” value with WM115 was 7.0. For the same molecule, in the test with WM266, the “TSI WM266” value was 0.7.
The corresponding values for `C=C(C)C1CC=C(CO[C@H]2O[C@@H]3O[C@@]4(C)CC[C@H]5[C@H](C)CC[C@@H]([C@H]2C)[C@@]35OO4)CC1` (some centres unmarked) [Hybrid 9b] are 0.2 ± 0.01 µM, 0.2 ± 0.01 µM, 0.3 ± 0.1 µM, 1.5 and 1.5.
On the same counts, the results for `CC(C)=CCC[C@@H](C)CCO[C@H]1O[C@@H]2O[C@@]3(C)CC[C@H]4[C@H](C)CC[C@@H]([C@H]1C)[C@@]24OO3` [Hybrid 9d] are 2.9 ± 0.6 µM, 2.7 ± 0.2 µM, 51 ± 0.3 µM, 17.6 and 18.9.
On the same counts, the results for `CC(C)=CCC[C@H](C)CCO[C@H]1O[C@@H]2O[C@@]3(C)CC[C@H]4[C@H](C)CC[C@@H]([C@H]1C)[C@@]24OO3` [Hybrid 9e] are 2.4 ± 0.1 µM, 2.2 ± 0.6 µM, 50 ± 0.03 µM, 20.8 and 22.7.
As to `CC(C)=CCC/C(C)=C/CO[C@H]1O[C@@H]2O[C@@]3(C)CC[C@H]4[C@H](C)CC[C@@H]([C@H]1C)[C@@]24OO3` [Hybrid 9g], the IC50 in the test on WM115 (Homo sapiens, WM-115, 24 h) turned out to be 14.5 ± 1.1 µM; in the test with WM266 (Homo sapiens, WM266, 24 h) it was 13.4 ± 1.5 µM; with C3PV (Homo sapiens, C3PV, 24 h), 6.2 ± 0.7 µM. In the test on WM115, the “TSI WM115” value came out at 0.4. For the same molecule, in the test with WM266, the “TSI WM266” value was found to be 0.5.
`C=CCc1ccc(OC(=O)CCC(=O)OC2OC3OC4(C)CCC5C(C)CCC(C2C)C35OO4)c(OC)c1` (centres unmarked) [Hybrid 10a]: the IC50 came out at 1.5 ± 0.8 µM in the test on WM115 (Homo sapiens, WM-115, 24 h); 0.6 ± 0.1 µM in the test with WM266 (Homo sapiens, WM266, 24 h); 1.6 ± 0.3 µM in the test with C3PV (Homo sapiens, C3PV, 24 h). The “TSI WM115” value in the test with WM115 amounted to 1.1. For the same molecule, the “TSI WM266” value in the test with WM266 stood at 2.7.
The corresponding values for `CC(C)=CCCC(C)CCOC(=O)CCC(=O)OC1OC2OC3(C)CCC4C(C)CCC(C1C)C24OO3` (centres unmarked) [Hybrid 10d] are 1.7 ± 0.5 µM, 1.3 ± 0.8 µM, 4.8 ± 0.9 µM, 2.8 and 3.7.
In the case of `CC(C)=CCCC(C)CCOC(=O)CCC(=O)OC1OC2OC3(C)CCC4C(C)CCC(C1C)C24OO3` (centres unmarked) [Hybrid 10e], in the test on WM115, the IC50 worked out at 1.9 ± 0.6 µM and the “TSI WM115” value stood at 2.7. Also, in the test with WM266, the half-inhibitory concentration (IC50) turned out to be 1.6 ± 0.9 µM and the “TSI WM266” value amounted to 3.2. Also, the 50% inhibitory concentration (IC50) in the test on C3PV is 5.1 ± 1.7 µM.
The corresponding values for `CC(C)=CCCC(C)=CCOC(=O)CCC(=O)OC1OC2OC3(C)CCC4C(C)CCC(C1C)C24OO3` (centres unmarked) [Hybrid 10g] are 1.5 ± 0.7 µM, 1.6, 1 ± 0.1 µM, 2.4 and 2.4 ± 0.9 µM.
Turning to `CC(C)=CCCC(C)CCOC1OC2OC3(C)CCC4C(C)CCC(C1C)C24O3` (centres unmarked) [Hybrid 11c], in the test on WM266 (Homo sapiens, WM266, 24 h), the IC50 is 35.1 ± 2.5 µM.
For `CC(C)=CCCC(C)=CCOC1OC2OC3(C)CCC4C(C)CCC(C1C)C24O3` (centres unmarked) [Hybrid 11f], the IC50 in the test on WM266 (Homo sapiens, WM266, 24 h) turned out to be 76.3 ± 9.5 µM. For the same molecule, in the test on WM266 (WM266, 2-deoxy analogue vs. corresponding DHA hybrid), the “fold lower antimelanoma effect compared to the corresponding compounds 9c and f” value is recorded as 40 fold.
With `CC(C)=CCC/C(C)=C\CO` [Nerol 7, nerol, reference compound], the IC50 with WM115 (Homo sapiens, WM-115, 24 h) was found to be 1.4 ± 0.03 µM; in the test with WM266 (Homo sapiens, WM266, 24 h), 0.5 ± 0.01 µM; with C3PV (Homo sapiens, C3PV, 24 h), 3.8 ± 1.5 µM. For the same molecule, the “TSI WM115” value in the test with WM115 stood at 2.7. For the same molecule, the “TSI WM266” value in the test with WM266 was determined as 7.6.
On the same counts, the results for `CC(=O)O[C@H]1C(=O)[C@@]2(C)[C@H]([C@H](OC(=O)c3ccccc3)[C@]3(O)C[C@H](OC(=O)[C@H](O)[C@@H](NC(=O)c4ccccc4)c4ccccc4)C(C)=C1C3(C)C)[C@]1(OC(C)=O)CO[C@@H]1C[C@@H]2O` [PTX, paclitaxel, reference compound] are 2.3 ± 0.7 µM, 0.9 ± 0.04 µM, 78.9 ± 0.8 µM, 34.3 and 87.7.
On the same counts, the results for `C=C(C)[C@@H]1CC=C(CO)CC1` [Perillyl alcohol 5, perillyl alcohol, reference compound] are 1.2 ± 0.02 µM, 0.6 ± 0.04 µM, 52.5 ± 9.5 µM, 43.8 and 87.5.
